This passage reports TGI and GI50 results from PubChem BioAssay (NCI).

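1) Cells in 96-well plates. 2) Compound, 48 h, 5 concentrations. 3) Linear interpolation between surrounding doses. 4) Unreached endpoint = highest concentration. Abbreviation: GI50, concentration required for 50% inhibition of growth. TGI marks complete inhibition of growth.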

Holding throughout (assay): inhibition of tumour cell growth, NCI panel, 48 h
The subject of test [1] is SNB-75 CNS.
Test [2] relates to M14 melanoma.
Test [3] deals with HOP-62 NSCLC.
For test [4], the system named is CCRF-CEM leukemia.
Test [5] concerns RPMI-8226 leukemia.
For test [6], the system named is SK-MEL-28 melanoma.
Test [7] concerns EKVX NSCLC.
Test [8] has as its system SK-MEL-5 melanoma.
Test [9] concerns LOX IMVI melanoma.
For test [10], the system named is U251 CNS.

For the molecule `Cc1ccc2ccccc2c1CSc1nc(N)nc2c1ncn2CC(C)C`, the TGI was > 100 µM in test [1]; > 80.8 µM in [2]; > 100 µM in test [3]; > 95.5 µM in test [4]; > 73.3 µM in test [5]; > 100 µM in [6]. Moreover, the TGI is > 100 µM in test [7], 20.3 µM in [8], > 100 µM in test [9] and > 100 µM in [10].

On to `CCN(CC)CCOc1nc2ccccc2c2c1-c1ccc(OC)cc1C2=O`, for which the GI50 was 1.44 µM in test [1]; 1.36 µM in test [2]; 1.13 µM in [3]; 0.267 µM in [4]; 0.449 µM in [5]; 1.63 µM in [6]. Moreover, the GI50 in test [7] is 1.59 µM; in test [8] it was 1.52 µM; in [9] it was 0.432 µM; in [10], 0.446 µM. Further, the TGI in test [1] came to 5.19 µM; in test [2], 3 µM; in test [4], 2.23 µM; in test [5], 2.15 µM; in test [6], 3.29 µM; in [7], 4.79 µM. Moreover, the TGI in [8] turned out to be 3.09 µM; in test [9] it was 1.81 µM; in test [10], 2.3 µM.

For the molecule `C[C@@H]1CC[C@@H]2[C@@H]1[C@H](OC(=O)/C=C/C1CCCCC1)[C@]1(C3CCCCC3)C[C@@H](OC(=O)CO)[C@@]2(C)O1`, the GI50 is 1.32 µM in test [1]; 14.8 µM in [2]; 14.6 µM in test [3]; 16.4 µM in [4]; 15.2 µM in test [5]; 15.1 µM in [6]. The GI50 in test [7] was 12.1 µM; in [8] it was 14 µM; in test [9], 14.3 µM; in test [10], 13.7 µM. The TGI in test [1] was found to be 16.5 µM; in test [2], 31.6 µM; in test [3], 27.5 µM; in [4], 34.7 µM; in test [5], 34.5 µM; in [6], 29.6 µM. Besides, the TGI in test [7] worked out at 24.4 µM; in [8] it was 26.6 µM; in [9] it was 27.1 µM; in test [10], 26.1 µM.

As for `N#C/C(=C\c1ccc[nH]1)c1cc(-c2ccc(Cl)cc2)nn1-c1ccccc1`, the GI50 in [1] is 2.29 µM; in test [2], 4.09 µM; in [3], 7.63 µM; in test [4] it was 3.59 µM; in test [5], 2.48 µM; in [6], 4.57 µM. Also, the GI50 in test [7] is 2.89 µM; in [8], 6.47 µM; in test [9], 4.9 µM; in test [10], 7.07 µM. Besides, the TGI in test [1] is 16 µM; in test [2] it was 14.8 µM; in test [3], 24.2 µM; in test [4], 22 µM; in test [5] it was 9.77 µM; in test [6], 17.5 µM. Also, the TGI in test [7] was > 100 µM; in test [8] it was 19.4 µM; in test [9] it was 16.8 µM; in [10] it was 24 µM.

For the molecule `Nc1ccc(C#Cc2ccccc2C#CCCCCO)cc1`, the GI50 in test [1] is 14.4 µM; in test [2] it was 14.1 µM; in test [3], 15.2 µM; in [4], 13.2 µM; in test [5] it was 18.1 µM; in test [6], 9.31 µM. Also, the GI50 in test [7] was 18.9 µM; in [8] it was 19.8 µM; in test [9], 16.2 µM; in test [10], 11.1 µM. For the same molecule, the TGI was found to be 29.8 µM in test [1]; 28.1 µM in test [2]; 28.7 µM in [3]; 28.1 µM in test [4]; 44.2 µM in [5]; 21.9 µM in test [6]. Moreover, the TGI in test [7] was 37.8 µM; in test [8], 38.6 µM; in test [9], 29.7 µM; in test [10], 23.1 µM.

Turning to `CC12CCC(C1)C(C)(C)C2OC(=O)c1ccccc1N` (centres undefined), the TGI in test [1] came out at 35.1 µM; in [2], 31.6 µM; in test [3], 32.4 µM; in [4] it was 3.96 µM; in [5], 16.9 µM; in [6], 31.9 µM. The TGI in test [7] was 30.2 µM; in test [8], 31 µM; in test [9], 33.8 µM; in test [10] it was 32.6 µM.

As to `COc1cc(OC)c(/C=C/C(=O)c2c(OC)cc(OC)cc2OC)c(OC)c1`, the GI50 in test [1] was 1.83 µM; in [2], 0.38 µM; in test [3], 1.27 µM; in [4], 0.876 µM; in test [5], 0.566 µM; in [6], 0.855 µM. Further, the GI50 in [7] was 3.61 µM; in [8], 0.818 µM; in test [9] it was 0.782 µM; in test [10] it was 1.11 µM. Moreover, the TGI in test [1] was > 26.2 µM; in test [2], 1.78 µM; in [3] it was > 100 µM; in [4] it was > 100 µM; in test [5], 3.03 µM; in test [6] it was 5.24 µM. Further, the TGI in test [7] was > 100 µM; in test [8] it was 11.2 µM; in test [9] it was 4.54 µM; in test [10], 9.43 µM.

Turning to `COc1cc(/C=C2\[C@@H]3NC(Cc4c(OC)c(C)c(OC)c(OC)c43)C(=O)N2Cc2ccccc2)c(OC)c(C)c1OC`, the TGI in [1] was > 100 µM; in test [2], > 100 µM; in test [3] it was > 100 µM; in test [4], > 100 µM; in test [5], 91.8 µM; in [6] it was > 100 µM. The TGI in [7] was 90.5 µM; in [8], > 100 µM; in test [9] it was > 100 µM; in [10] it was > 100 µM.
